Source: PMC8637766, “A mixed chirality α-helix in a stapled bicyclic and a linear antimicrobial peptide revealed by X-ray crystallography” (RSC Chemical Biology, 2021)
Converted amounts (≈) assume the structure as drawn. Square brackets hold non-standard residues; d marks the D form. Ends that are not written are not given here. Peptide text beside a SMILES is read from it. * marks the point of attachment. Benzoyl(4-Me) = Cc1ccc(C(=O)*)cc1

Assays:
P. aeruginosa PAO1 = type: cell-based, Pseudomonas aeruginosa
Method: (§1) Bicyclic and linear peptides cytotoxicity was assayed against P. aeruginosa PAO1, P. aeruginosa ZEM-1A, P. aeruginosa ZEM9A, K. pneumoniae Oxa-48, E. coli W3110, A. baumannii BAL225, S. aureus Newman, S. aureus COL (clinical isolate of MRSA) , B. Subtilis BR151.
(§2) To determine the Minimal Inhibitory Concentration (MIC), Broth Microdilution method was used . 2 A colony of bacteria from glycerol stock was grown in LB medium overnight at 37 °C and 180 rpm shaking. The compounds were prepared as stock solutions of 8 mg/mL in sterilized milliQ deionized water, added to the first well of 96 -well sterile, polypropylene round bottom microtiter plates (TPP, untreated) and diluted serially by ½. The concentration of the bacteria was quantified by measuring absorbance at 600 nm and diluted to an OD 600 of 0.022 in MH medium. The sample solutions (150 µL) were mixed with 4 µL diluted bacterial suspension with a final inoculation of about 5×10^5 CFU.
(§3) For each test, two columns of the plate were kept for sterility control (MH medium only), growth control (MH medium with bacterial inoculum, no compound). The positive control, Polymyxin B (starting with a concentration of 64 µg/mL) in MH medium with bacterial inoculums, was introduced in the two first lines of the plate. The plates were incubated at 37 °C for ~18 hours under static conditions. 15 μL of 3-(4,5-dimethylthiazol-2-yl)-2,5-diphenyltetrazolium bromide (MTT)3 (1 mg/mL in sterilized milliQ deionized water) were added to each well and the plates were incubated for 20-30 minutes at room temperature. The minimal inhibitory concentration (MIC) was defined as the lowest concentration of the dendrimer that inhibits the visible growth of the tested bacteria (yellow) with the unaided eye.

P. aeruginosa ZEM-1A = type: cell-based, Pseudomonas aeruginosa
Method: as §1, §2, §3

P. aeruginosa ZEM9A = type: cell-based, Pseudomonas aeruginosa
Method: as §1, §2, §3

[1] = Lipid vesicle leakage assay, 5(6)-carboxyfluorescein release; settings: 10 μg mL^−1 compound, leakage at 250 s; 10 mM TRIS, 107 mM NaCl, pH 7.4, 25 °C; carboxyfluorescein fluorescence, Triton X-100 = full release
Method: 4 Lipid Vesicle Leakage assays
5(6)-carboxyfluorescein (CF) was purchased from Sigma. Egg Yolk Phosphatidylcholine (EYPC),
Egg Yolk Phosphatidylglycerol (EYPG) and a Mini-Extruder were purchased from Avanti Polar
Lipids. Egg PC or Egg PG thin lipid layers were prepared by evaporating a solution of 100 mg EYPC
or EYPG in 4 mL MeOH/CHCl3 (1:1) on a rotary evaporator at room temperature and then dried in
vacuo overnight. The resulting film was then hydrated with 4 mL CF buffer (50 mM CF, 10 mM
TRIS, 107 mM NaCl, pH 7.4) for 30 min, subjected to freeze-thaw cycles (7×) and extrusion (15×)
through a polycarbonate membrane (pore size 100 nm). Extra vesicular components were removed
by gel filtration (Sephadex G-50) with 10 mM TRIS, 107 mM NaCl, pH 7.4 buffer. Final conditions:
~ 2.5 mM PC or PG; inside: 50 mM CF, 10 mM TRIS, 10 mM NaCl, pH 7.4 buffer; outside: 10 mM
TRIS, 107 mM NaCl, pH 7.4. PC or PG stock solutions (37.5 µL) were diluted to 3000 µL with a
buffer (10 mM TRIS, 107 mM NaCl, pH 7.4) in a thermostated fluorescence cuvette (25 °C) and
gently stirred (final lipid concentration ~31 µM). CF efflux was monitored at λem 517 nm (λex 492
nm) as a function of time after addition of the desired volume of peptide (1 or 20 mg/mL stock in mQ
water) at t = 45 s. The following final concentrations of peptide were monitored: 5, 10, 15, 20, 25 and
200 µg/mL. Finally, 30 µL of 1.2% Triton X -100 was added to the cuvette (0.012% final
concentration) at t = 285 s to reach the maximum intensity. Fluorescence intensities were then
Figure S1: Vesicle leakage experiments using 5(6)-carboxyfluorescein induced by peptides. EYPG and EYPC vesicles
were suspended in buffer (10 mM TRIS, 107 mM NaCl, pH 7.4) and the indicated concentration of the compound was
added after 45 sec. After 285 seconds 30 μL Triton X-100 1.2% was added for full release of fluorescein. […]

A. baumannii BAL225 = type: cell-based
Method: as §1, §2, §3

E. coli W3110 = type: cell-based
Method: as §1, §2, §3

K. pneumoniae Oxa-48 = type: cell-based
Method: as §1, §2, §3

[2] = test system: S. aureus COL (clinical isolate of MRSA); type: cell-based
Method: as §1, §2, §3

S. aureus Newman = type: cell-based
Method: as §1, §2, §3

B. subtilis BR151 = type: cell-based, Bacillus subtilis; settings: BR151, 20 h
Method: as §1, §2
For each test, two columns of the plate were kept for sterility control (MH medium only), growth control (MH medium with bacterial inoculum, no compound). The positive control, Polymyxin B (starting with a concentration of 64 µg/mL) in MH medium with bacterial inoculums, was introduced in the two first lines of the plate. […]
conditions. 15 μL of 3-(4,5-dimethylthiazol-2-yl)-2,5-diphenyltetrazolium bromide (MTT)3 (1 mg/mL in sterilized milliQ deionized water) were added to each well and the plates were incubated for 20-30 minutes at room temperature. The minimal inhibitory concentration (MIC) was defined as the lowest concentration of the dendrimer that inhibits the visible growth of the tested bacteria (yellow) with the unaided eye.

MIC PAO1 (P. aeruginosa PAO1) [µg/mL]	MIC P. aeruginosa ZEM-1A (P. aeruginosa ZEM-1A) [µg/mL]	MIC P. aeruginosa ZEM9A (P. aeruginosa ZEM9A) [µg/mL]	MIC A. baumannii BAL225 (A. baumannii BAL225) [µg/mL]	MIC E. coli W3110 (E. coli W3110) [µg/mL]	MIC K. pneumoniae Oxa-48 (K. pneumoniae Oxa-48) [µg/mL]	MIC S. aureus COL [2] [µg/mL]	MIC S. aureus Newman (S. aureus Newman) [µg/mL]	MIC BR 151 (B. subtilis BR151) [µg/mL]	Compound	EYPC vesicle leakage [1] [%]	EYPG vesicle leakage [1] [%]
8 (≈ 5.54 µM)	8 (≈ 5.54 µM)	>32	4 (≈ 2.77 µM)	8 (≈ 5.54 µM)	16 (≈ 11.1 µM)	8 (≈ 5.54 µM)	8 (≈ 5.54 µM)	2 (≈ 1.39 µM)	Cc1c2cc3cc1CSC[C@H](NC(=O)[C@H](CCCCN)NC(=O)[C@H](CC(C)C)NC(=O)[C@H](CC(C)C)NC(=O)[C@H](CCCCN)NC(=O)[C@H](CCCCN)NC3=O)C(=O)N[C@@H](CC(C)C)C(=O)N[C@@H](CCCCN)C(=O)N[C@H](C(=O)N[C@@H](CC(C)C)C(=O)N[C@@H](CC(C)C)C(N)=O)CSC2 [bp65] (HELM PEPTIDE1{K.K.L.L.K.C.L.K.C.L.L.[am]}|CHEM1{[Cc1c(C[*:2])cc(C(=O)[*:1])cc1C[*:3]]}$PEPTIDE1,CHEM1,1:R1-1:R1|PEPTIDE1,CHEM1,6:R3-1:R2|PEPTIDE1,CHEM1,9:R3-1:R3$$$V2.0)	37	34
16 (≈ 11.1 µM)	4 to 8	>32	4 (≈ 2.77 µM)	8 (≈ 5.54 µM)	16 (≈ 11.1 µM)	4 (≈ 2.77 µM)	2 to 4		Cc1c2cc3cc1CSC[C@H](NC(=O)[C@@H](CCCCN)NC(=O)[C@H](CC(C)C)NC(=O)[C@H](CC(C)C)NC(=O)[C@@H](CCCCN)NC(=O)[C@@H](CCCCN)NC3=O)C(=O)N[C@@H](CC(C)C)C(=O)N[C@H](CCCCN)C(=O)N[C@H](C(=O)N[C@@H](CC(C)C)C(=O)N[C@@H](CC(C)C)C(N)=O)CSC2 [bp69] (HELM PEPTIDE1{[dK].[dK].L.L.[dK].C.L.[dK].C.L.L.[am]}|CHEM1{[Cc1c(C[*:2])cc(C(=O)[*:1])cc1C[*:3]]}$PEPTIDE1,CHEM1,1:R1-1:R1|PEPTIDE1,CHEM1,6:R3-1:R2|PEPTIDE1,CHEM1,9:R3-1:R3$$$V2.0)	57	48
4 to 8	4 (≈ 2.76 µM)	16 (≈ 11 µM)	4 (≈ 2.76 µM)	8 (≈ 5.52 µM)	8 (≈ 5.52 µM)	4 (≈ 2.76 µM)	4 (≈ 2.76 µM)		CSC[C@H](NC(=O)[C@H](CCCCN)NC(=O)[C@H](CC(C)C)NC(=O)[C@H](CSC)NC(=O)[C@H](CCCCN)NC(=O)[C@H](CC(C)C)NC(=O)[C@H](CC(C)C)NC(=O)[C@H](CCCCN)NC(=O)[C@H](CCCCN)NC(=O)c1ccc(C)cc1)C(=O)N[C@@H](CC(C)C)C(=O)N[C@@H](CC(C)C)C(N)=O [ln65b] ({Benzoyl(4-Me)}-KKLLKC(Me)LKC(Me)LL-NH2)		
8 (≈ 6.05 µM)	8 (≈ 6.05 µM)	>32	2 to 4	4 (≈ 3.03 µM)	8 (≈ 6.05 µM)	16 (≈ 12.1 µM)	8 (≈ 6.05 µM)		CC(C)C[C@H](NC(=O)[C@H](CC(C)C)NC(=O)[C@H](CC(C)C)NC(=O)[C@@H](CCCCN)NC(=O)[C@H](CC(C)C)NC(=O)[C@H](CC(C)C)NC(=O)[C@@H](CCCCN)NC(=O)[C@H](CC(C)C)NC(=O)[C@H](CC(C)C)NC(=O)[C@@H](CCCCN)NC(=O)[C@H](N)CCCCN)C(N)=O [ln69] (HELM PEPTIDE1{[dK].[dK].L.L.[dK].L.L.[dK].L.L.L.[am]}$$$$V2.0)		
16 (≈ 11 µM)	8 (≈ 5.52 µM)	>32	8 (≈ 5.52 µM)	8 (≈ 5.52 µM)	>32	32 (≈ 22.1 µM)	32 (≈ 22.1 µM)		CSC[C@H](NC(=O)[C@@H](CCCCN)NC(=O)[C@H](CC(C)C)NC(=O)[C@H](CSC)NC(=O)[C@@H](CCCCN)NC(=O)[C@H](CC(C)C)NC(=O)[C@H](CC(C)C)NC(=O)[C@@H](CCCCN)NC(=O)[C@@H](CCCCN)NC(=O)c1ccc(C)cc1)C(=O)N[C@@H](CC(C)C)C(=O)N[C@@H](CC(C)C)C(N)=O [ln69b] ({Benzoyl(4-Me)}-[dK][dK]LL[dK]C(Me)L[dK]C(Me)LL-NH2)		
2 to 4	2 to 4	16	2 to 4	4	4	4	2 to 4		KKLLKLLKLLL-NH2 [ln65]		
